Measured values reported in PubChem BioAssay AID248 (DTP/NCI, 2004).
Where “and” joins values, the source holds several entries; their conditions need not be identical. Identical values can stand only once. Toxic doses and inconclusive results are not listed. No stated cut-off is given here; in the data, active means T/C of 150% or more; inactive means T/C below 125%.

Tested on: L1210 leukemia ip in BDF1 mice, survival T/C
Assay: NCI In Vivo Anticancer Drug Screen. Data for tumor model L1210 Leukemia (intraperitoneal) in B6D2F1 (BDF1) mice
Details: endpoint: mean survival time, higher = longer survival
Procedure, shortened: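 Antitumor effect is assessed in tumor-bearing animals. Survival in the compound arm is compared with a vehicle-dosed control arm and expressed as their quotient.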

[1] = dose: 100.0 mg/kg/injection, schedule: Q01DX009 (ip), vehicle: saline
[2] = dose: 100.0 mg/kg/injection, schedule: Q04DX003 (ip), vehicle: saline
[3] = dose: 50.0 mg/kg/injection, schedule: Q04DX003 (ip), vehicle: saline with Tween-80
[4] = dose: 100.0 mg/kg/injection, schedule: Q04DX003 (ip), vehicle: saline with Tween-80
[5] = dose: 100.0 mg/kg/injection, schedule: Q04DX002 (ip), vehicle: saline with Tween-80
[6] = dose: 200.0 mg/kg/injection, schedule: Q04DX002 (ip), vehicle: saline with Tween-80
[7] = dose: 400.0 mg/kg/injection, schedule: Q04DX002 (ip), vehicle: saline with Tween-80
[8] = dose: 100.0 mg/kg/injection, schedule: Q01DX001 (ip), vehicle: saline
[9] = dose: 200.0 mg/kg/injection, schedule: Q01DX001 (ip), vehicle: saline
[10] = dose: 400.0 mg/kg/injection, schedule: Q01DX001 (ip), vehicle: saline
[11] = dose: 25.0 mg/kg/injection, schedule: Q04DX002 (ip), vehicle: saline
[12] = dose: 50.0 mg/kg/injection, schedule: Q04DX002 (ip), vehicle: saline
[13] = dose: 100.0 mg/kg/injection, schedule: Q04DX002 (ip), vehicle: saline
[14] = dose: 200.0 mg/kg/injection, schedule: Q04DX002 (ip), vehicle: saline
[15] = dose: 400.0 mg/kg/injection, schedule: Q04DX002 (ip), vehicle: saline
[16] = dose: 100.0 mg/kg/injection, schedule: Q01DX001 (ip), vehicle: other
[17] = dose: 200.0 mg/kg/injection, schedule: Q01DX001 (ip), vehicle: other
[18] = dose: 100.0 mg/kg/injection, schedule: Q04DX003 (ip), vehicle: Klucel (hydroxypropylcellulose) (HPC)
[19] = dose: 200.0 mg/kg/injection, schedule: Q04DX003 (ip), vehicle: Klucel (hydroxypropylcellulose) (HPC)
[20] = dose: 400.0 mg/kg/injection, schedule: Q04DX003 (ip), vehicle: Klucel (hydroxypropylcellulose) (HPC)
[21] = dose: 100.0 mg/kg/injection, schedule: Q01DX001 (ip), vehicle: Klucel (hydroxypropylcellulose) (HPC)
[22] = dose: 200.0 mg/kg/injection, schedule: Q01DX001 (ip), vehicle: Klucel (hydroxypropylcellulose) (HPC)
[23] = dose: 400.0 mg/kg/injection, schedule: Q01DX001 (ip), vehicle: Klucel (hydroxypropylcellulose) (HPC)
[24] = dose: 37.5 mg/kg/injection, schedule: Q04DX003 (ip), vehicle: saline
[25] = dose: 75.0 mg/kg/injection, schedule: Q01DX001 (ip), vehicle: saline
[26] = dose: 75.0 mg/kg/injection, schedule: Q04DX003 (ip), vehicle: saline
[27] = dose: 150.0 mg/kg/injection, schedule: Q04DX003 (ip), vehicle: saline
[28] = dose: 100.0 mg/kg/injection, schedule: Q01DX009 (ip), vehicle: Klucel (hydroxypropylcellulose) (HPC)
[29] = dose: 200.0 mg/kg/injection, schedule: Q01DX009 (ip), vehicle: Klucel (hydroxypropylcellulose) (HPC)

Measured: T/C

O/N=C\C[n+]1cc2ccccc2cc1/C=N\O
inactive: dose: 25.0 mg/kg/injection, schedule: Q01DX009 (ip), vehicle: saline 97 % of control | dose: 50.0 mg/kg/injection, schedule: Q01DX009 (ip), vehicle: saline 97 % of control | [1] 104 % of control | [2] 98 % of control

COc1cccc(OC)c1OCCCN1CCOCC1
inactive: dose: 25.0 mg/kg/injection, schedule: Q04DX003 (ip), vehicle: saline with Tween-80 99 % of control | [3] 100 % of control | [4] 94 % of control

COc1cc(C(=O)Nc2ccccc2)cc(OC)c1OC
inactive: [5] 102 % of control | [6] 98 % of control | [7] 95 % of control

CNc1cn(C2OC(CO)C(O)C2O)c(=O)[nH]c1=O (configuration not stated)
inactive: dose: 100.0 mg/kg/injection, schedule: Q01DX005 (ip), vehicle: saline 96 % of control | dose: 200.0 mg/kg/injection, schedule: Q01DX005 (ip), vehicle: saline 96 % of control

Cc1cc(/C=C/c2ccc(N(CCCl)CCCl)cc2)nc2ccccc12
inactive: [8] 107 % of control | [9] 113 % of control | [10] 103 % of control

ClCCN(CCCl)c1ccc(Nc2nc(Nc3ccc(N(CCCl)CCCl)cc3)c3ccccc3n2)cc1
inactive: [11] 105 % of control | [12] 113 % of control | [13] 111 % of control | [14] 106 % of control and 109 % of control | [15] 95 % of control

Oc1[nH]c(=S)sc1/C=C1\C=NN=N1
inactive: [16] 108 % of control | [17] 97 % of control | dose: 400.0 mg/kg/injection, schedule: Q01DX001 (ip), vehicle: other 101 % of control

Cc1ccc(Oc2ccc(C(=O)O)cc2)cc1
inactive: [18] 96 % of control | [19] 102 % of control | [20] 103 % of control

CC(=O)OC1CCC2(C)C(=CC=C3C2CCC2(C)C3CCC2C(C)CCCC(C)C)C1 (configuration not stated)
inactive: [21] 97 % of control | [22] 87 % of control | [23] 87 % of control

COC(=O)c1[nH]cnc1N1CC[N+](CCCl)=N1
inactive: dose: 37.5 mg/kg/injection, schedule: Q01DX009 (ip), vehicle: saline 116 % of control | [24] 100 % of control | [25] 98 % of control | dose: 75.0 mg/kg/injection, schedule: Q01DX009 (ip), vehicle: saline 95 % of control | [26] 107 % of control | dose: 150.0 mg/kg/injection, schedule: Q01DX001 (ip), vehicle: saline 100 % of control | dose: 150.0 mg/kg/injection, schedule: Q01DX009 (ip), vehicle: saline 103 % of control | [27] 102 % of control

O=C1Oc2ccccc2C1c1ccccc1 (configuration not stated)
inactive: dose: 87.5 mg/kg/injection, schedule: Q01DX009 (ip), vehicle: other 103 % of control | dose: 175.0 mg/kg/injection, schedule: Q01DX009 (ip), vehicle: other 108 % of control | dose: 350.0 mg/kg/injection, schedule: Q01DX009 (ip), vehicle: other 106 % of control

CCOC(=O)c1ccc(NC(=O)c2ccc(Cl)cc2Cl)cc1
inactive: [3] 102 % of control | dose: 100.0 mg/kg/injection, schedule: Q01DX009 (ip), vehicle: saline with Tween-80 96 % of control and 90 % of control | [5] 93 % of control and 113 % of control | [4] 98 % of control | dose: 200.0 mg/kg/injection, schedule: Q01DX009 (ip), vehicle: saline with Tween-80 97 % of control and 110 % of control | [6] 95 % of control and 91 % of control | dose: 200.0 mg/kg/injection, schedule: Q04DX003 (ip), vehicle: saline with Tween-80 98 % of control | [7] 102 % of control and 92 % of control

COc1ccc(CCCCC(=O)O)cc1O
inactive: [8] 103 % of control | [9] 103 % of control | [10] 107 % of control

O=CN(Cc1cnccn1)Cc1cnccn1
inactive: [1] 96 % of control | [2] 93 % of control | dose: 200.0 mg/kg/injection, schedule: Q01DX009 (ip), vehicle: saline 98 % of control | dose: 200.0 mg/kg/injection, schedule: Q04DX003 (ip), vehicle: saline 96 % of control | dose: 400.0 mg/kg/injection, schedule: Q01DX009 (ip), vehicle: saline 94 % of control | dose: 400.0 mg/kg/injection, schedule: Q04DX003 (ip), vehicle: saline 96 % of control

O=[N+]([O-])c1ccc(NCc2ccccc2O)cc1
inactive: dose: 75.0 mg/kg/injection, schedule: Q04DX003 (ip), vehicle: other 110 % of control | [21] 101 % of control | dose: 150.0 mg/kg/injection, schedule: Q04DX003 (ip), vehicle: other 97 % of control | [22] 106 % of control | dose: 300.0 mg/kg/injection, schedule: Q04DX003 (ip), vehicle: other 103 % of control | [23] 101 % of control

CC(C)(CSCCSCC(C)(C)C(=O)O)C(=O)O
inactive: [28] 94 % of control | [29] 94 % of control | dose: 400.0 mg/kg/injection, schedule: Q01DX009 (ip), vehicle: Klucel (hydroxypropylcellulose) (HPC) 91 % of control

CCCC(=O)OC1=CC(=O)c2ccccc2C1=O
inactive: dose: 75.0 mg/kg/injection, schedule: Q01DX001 (ip), vehicle: other 94 % of control | dose: 150.0 mg/kg/injection, schedule: Q01DX001 (ip), vehicle: other 89 % of control

C#CCC1(OC(N)=O)CCCCC1
inactive: dose: 25.0 mg/kg/injection, schedule: Q01DX009 (ip), vehicle: Klucel (hydroxypropylcellulose) (HPC) 96 % of control | dose: 25.0 mg/kg/injection, schedule: Q04DX003 (ip), vehicle: Klucel (hydroxypropylcellulose) (HPC) 102 % of control | dose: 50.0 mg/kg/injection, schedule: Q01DX009 (ip), vehicle: Klucel (hydroxypropylcellulose) (HPC) 96 % of control | dose: 50.0 mg/kg/injection, schedule: Q04DX003 (ip), vehicle: Klucel (hydroxypropylcellulose) (HPC) 110 % of control | [28] 110 % of control | [18] 100 % of control | [29] 87 % of control | [19] 107 % of control | [20] 94 % of control

C#CCSC(C)C
inactive: [11] 104 % of control | [12] 104 % of control | [13] 96 % of control | [14] 104 % of control and 107 % of control | [15] 93 % of control

O=Cc1cc([N+](=O)[O-])cc(CCl)c1O
inactive: [28] 90 % of control

Cc1ccc(C(=O)OCC(=O)c2ccc(-c3ccccc3)cc2)cc1
inactive: [16] 89 % of control | [17] 90 % of control

CSc1n[nH]c(=O)nc1SC
inactive: [8] 104 % of control | [9] 96 % of control

c1ccc2c(c1)c(N1CCOCC1)nn1nnnc21
inactive: [24] 101 % of control | [26] 98 % of control | [27] 98 % of control

CC(C)CC(=O)Cc1ccccc1
inactive: [8] 105 % of control | [9] 105 % of control | [10] 105 % of control

C[N+]1(CC2CO2)CCCCCC1 (configuration not stated)
inactive: [25] 95 % of control

Cc1cc(N(CCCl)CCCl)ccc1C=Nc1ccc(-c2csc(Cc3ccccc3)n2)c(Cl)c1
inactive: dose: 100.0 mg/kg/injection, schedule: Q01DX001 (sc), vehicle: carboxymethylcellulose (CMC) 100 % of control | dose: 200.0 mg/kg/injection, schedule: Q01DX001 (sc), vehicle: carboxymethylcellulose (CMC) 113 % of control | dose: 400.0 mg/kg/injection, schedule: Q01DX001 (sc), vehicle: carboxymethylcellulose (CMC) 100 % of control
